# Reference: ChEMBL document CHEMBL3808371, “Design, synthesis and biological evaluation of diaziridinyl quinone isoxazole hybrids” (Eur J Med Chem, 2016)
# Calls of active or inactive are those of the source. The calls are words filed in the database; no cut-off is given here.
# Legend:
# [1] = test system: Micrococcus luteus; experiment: Antimicrobial activity against Micrococcus luteus MTCC 2470 after 24 hrs by well diffusion method; assay type: functional
# [2] = test system: Raoultella planticola; experiment: Antimicrobial activity against Klebsiella planticola MTCC 530 after 24 hrs by well diffusion method; assay type: functional
# [3] = Cytotoxicity against human PC3 cells after 72 hrs by XTT assay; assay type: functional, cell-based; settings: PC-3, 72 h
# [4] = test system: Staphylococcus aureus; experiment: Bactericidal activity against Staphylococcus aureus MLS16 MTCC 2940 after 24 hrs by serial dilution method; assay type: functional; settings: MLS16 MTCC 2940, 24 h
# [5] = test system: Raoultella planticola; experiment: Antibiofilm activity against Klebsiella planticola MTCC 530 after 24 hrs by crystal violet staining based assay; assay type: functional, organism-based; settings: MTCC 530, 24 h
# [6] = test system: Staphylococcus aureus; experiment: Bactericidal activity against Staphylococcus aureus MTCC 96 after 24 hrs by serial dilution method; assay type: functional; settings: MTCC 96, 24 h
# [7] = test system: Bacillus subtilis; experiment: Antibiofilm activity against Bacillus subtilis MTCC 121 after 24 hrs by crystal violet staining based assay; assay type: functional, organism-based; settings: MTCC 121, 24 h
# [8] = test system: Micrococcus luteus; experiment: Bactericidal activity against Micrococcus luteus MTCC 2470 after 24 hrs by serial dilution method; assay type: functional; settings: MTCC 2470, 24 h
# [9] = test system: Staphylococcus aureus; experiment: Antimicrobial activity against Staphylococcus aureus MTCC 96 after 24 hrs by well diffusion method; assay type: functional
# [10] = test system: Pseudomonas aeruginosa; experiment: Antimicrobial activity against Pseudomonas aeruginosa MTCC 2453 after 24 hrs by well diffusion method; assay type: functional
# [11] = test system: Raoultella planticola; experiment: Bactericidal activity against Klebsiella planticola MTCC 530 after 24 hrs by serial dilution method; assay type: functional; settings: MTCC 530, 24 h
# [12] = test system: Staphylococcus aureus; experiment: Antibiofilm activity against Staphylococcus aureus MLS16 MTCC 2940 after 24 hrs by crystal violet staining based assay; assay type: functional, organism-based; settings: MLS16 MTCC 2940, 24 h
# [13] = test system: Candida albicans; experiment: Antimicrobial activity against Candida albicans MTCC 3017 after 24 hrs by well diffusion method; assay type: functional; settings: MTCC 3017, 24 h
# [14] = test system: A549; experiment: Selectivity ratio of IC50 for human PC3 cells to IC50 for human A549 cells; assay type: functional
# [15] = test system: Staphylococcus aureus; experiment: Antibiofilm activity against Staphylococcus aureus MTCC 96 after 24 hrs by crystal violet staining based assay; assay type: functional, organism-based; settings: MTCC 96, 24 h
# [16] = test system: Bacillus subtilis; experiment: Antimicrobial activity against Bacillus subtilis MTCC 121 after 24 hrs by well diffusion method; assay type: functional
# [17] = test system: Staphylococcus aureus; experiment: Antimicrobial activity against Staphylococcus aureus MLS16 MTCC 2940 after 24 hrs by well diffusion method; assay type: functional
# [18] = test system: Micrococcus luteus; experiment: Antibiofilm activity against Micrococcus luteus MTCC 2470 after 24 hrs by crystal violet staining based assay; assay type: functional, organism-based; settings: MTCC 2470, 24 h
# [19] = test system: Bacillus subtilis; experiment: Bactericidal activity against Bacillus subtilis MTCC 121 after 24 hrs by serial dilution method; assay type: functional; settings: MTCC 121, 24 h
# [20] = test system: A549; experiment: Cytotoxicity against human A549 cells after 72 hrs by XTT assay; assay type: functional, cell-based; settings: A549, 72 h
# [21] = test system: Escherichia coli; experiment: Antimicrobial activity against Escherichia coli MTCC 739 after 24 hrs by well diffusion method; assay type: functional
# [22] = test system: A549; experiment: Cytotoxicity against human A549 cells; assay type: functional, cell-based
# [23] = Cytotoxicity against human PC3 cells; assay type: functional, cell-based; settings: PC-3
# [24] = test system: A549; experiment: Selectivity ratio of IC50 for human A549 cells to IC50 for human PC3 cells; assay type: functional
# [25] = test system: Candida albicans; experiment: Fungicidal activity against Candida albicans MTCC 1637 after 24 hrs by serial dilution method; assay type: functional; settings: MTCC 1637, 24 h
# [26] = test system: Nakaseomyces glabratus; experiment: Antimicrobial activity against Candida glabrata MTCC 3019 after 24 hrs by well diffusion method; assay type: functional; settings: MTCC 3019, 24 h
# [27] = test system: Candida albicans; experiment: Antimicrobial activity against Candida albicans MTCC 3958 after 24 hrs by well diffusion method; assay type: functional; settings: MTCC 3958, 24 h
# [28] = test system: Candida albicans; experiment: Fungicidal activity against Candida albicans MTCC 183 after 24 hrs by serial dilution method; assay type: functional; settings: MTCC 183, 24 h
# [29] = test system: [Candida] aaseri; experiment: Antimicrobial activity against Candida aaseri MTCC 1962 after 24 hrs by well diffusion method; assay type: functional; settings: Yamadazyma aaseri, MTCC 1962, 24 h
# [30] = test system: Candida albicans; experiment: Fungicidal activity against Candida albicans MTCC 7315 after 24 hrs by serial dilution method; assay type: functional; settings: MTCC 7315, 24 h
# [31] = test system: Nakaseomyces glabratus; experiment: Fungicidal activity against Candida glabrata MTCC 3019 after 24 hrs by serial dilution method; assay type: functional; settings: MTCC 3019, 24 h
# [32] = test system: Pichia kudriavzevii; experiment: Antimicrobial activity against Candida krusei MTCC 3020 after 24 hrs by well diffusion method; assay type: functional; settings: MTCC 3020, 24 h
# [33] = test system: Candida albicans; experiment: Fungicidal activity against Candida albicans MTCC 227 after 24 hrs by serial dilution method; assay type: functional; settings: MTCC 227, 24 h
# [34] = test system: Candida albicans; experiment: Antimicrobial activity against Candida albicans MTCC 183 after 24 hrs by well diffusion method; assay type: functional; settings: MTCC 183, 24 h
# [35] = test system: Candida albicans; experiment: Antimicrobial activity against Candida albicans MTCC 854 after 24 hrs by well diffusion method; assay type: functional; settings: MTCC 854, 24 h
# [36] = test system: Candida parapsilosis; experiment: Antimicrobial activity against Candida parapsilosis MTCC 1744 after 24 hrs by well diffusion method; assay type: functional; settings: Lodderomyces parapsilosis, MTCC 1744, 24 h
# [37] = test system: Candida albicans; experiment: Antimicrobial activity against Candida albicans MTCC 4748 after 24 hrs by well diffusion method; assay type: functional; settings: MTCC 4748, 24 h
# [38] = test system: Candida albicans; experiment: Fungicidal activity against Candida albicans MTCC 4748 after 24 hrs by serial dilution method; assay type: functional; settings: MTCC 4748, 24 h
# [39] = test system: Candida albicans; experiment: Fungicidal activity against Candida albicans MTCC 854 after 24 hrs by serial dilution method; assay type: functional; settings: MTCC 854, 24 h
# [40] = test system: Candida albicans; experiment: Antimicrobial activity against Candida albicans MTCC 227 after 24 hrs by well diffusion method; assay type: functional; settings: MTCC 227, 24 h
# [41] = test system: Candida albicans; experiment: Antimicrobial activity against Candida albicans MTCC 1637 after 24 hrs by well diffusion method; assay type: functional; settings: MTCC 1637, 24 h
# [42] = test system: Candida parapsilosis; experiment: Fungicidal activity against Candida parapsilosis MTCC 1744 after 24 hrs by serial dilution method; assay type: functional; settings: Lodderomyces parapsilosis, MTCC 1744, 24 h
# [43] = test system: Candida albicans; experiment: Fungicidal activity against Candida albicans MTCC 3018 after 24 hrs by serial dilution method; assay type: functional; settings: MTCC 3018, 24 h
# [44] = test system: Candida albicans; experiment: Antimicrobial activity against Candida albicans MTCC 3018 after 24 hrs by well diffusion method; assay type: functional; settings: MTCC 3018, 24 h
# [45] = test system: Pichia kudriavzevii; experiment: Fungicidal activity against Candida krusei MTCC 3020 after 24 hrs by serial dilution method; assay type: functional; settings: MTCC 3020, 24 h
# [46] = test system: Pichia sporocuriosa; experiment: Antimicrobial activity against Issatchenkia hanoiensis MTCC 4755 after 24 hrs by well diffusion method; assay type: functional; settings: MTCC 4755, 24 h
# [47] = test system: Candida albicans; experiment: Fungicidal activity against Candida albicans MTCC 3958 after 24 hrs by serial dilution method; assay type: functional; settings: MTCC 3958, 24 h
# [48] = test system: Candida albicans; experiment: Fungicidal activity against Candida albicans MTCC 3017 after 24 hrs by serial dilution method; assay type: functional; settings: MTCC 3017, 24 h
# [49] = test system: Candida albicans; experiment: Antimicrobial activity against Candida albicans MTCC 7315 after 24 hrs by well diffusion method; assay type: functional; settings: MTCC 7315, 24 h
# [50] = test system: Pichia sporocuriosa; experiment: Fungicidal activity against Issatchenkia hanoiensis MTCC 4755 after 24 hrs by serial dilution method; assay type: functional; settings: MTCC 4755, 24 h
# [51] = test system: [Candida] aaseri; experiment: Fungicidal activity against Candida aaseri MTCC 1962 after 24 hrs by serial dilution method; assay type: functional; settings: Yamadazyma aaseri, MTCC 1962, 24 h
smiles,measurement,setting,value
O=C1C=C(N2CC2)C(=O)C(c2cc(-c3ccc(C(=O)N4CCCCC4)s3)on2)=C1N1CC1,MIC,"[1]; MTCC 2470, 24 h",62.5 µg/mL
same,MIC,"[2]; MTCC 530, 24 h",7.8 µg/mL
same,IC50,[3],21.3 µM
same,MBC,[4],62.5 µg/mL
same,IC50,[5],5.4 µM
same,MBC,[6],31.2 µg/mL
same,IC50,[7],2800 nM
same,MBC,[8],125 µg/mL
same,MIC,"[9]; MTCC 96, 24 h",15.6 µg/mL
same,MIC,"[10]; MTCC 2453, 24 h",> 125 µg/mL
same,MBC,[11],15.6 µg/mL
same,IC50,[12],9.8 µM
same,MIC,[13],15.6 µg/mL
same,Ratio IC50,[14],12
same,IC50,[15],11.2 µM
same,MIC,"[16]; MTCC 121, 24 h",3.9 µg/mL
same,MIC,"[17]; MLS16 MTCC 2940, 24 h",15.6 µg/mL
same,IC50,[18],35.6 µM
same,MBC,[19],15.6 µg/mL
same,IC50,[20],1.7 µM
same,MIC,"[21]; MTCC 739, 24 h",> 125 µg/mL
CO[C@@]12[C@H](COC(N)=O)C3=C(C(=O)C(C)=C(N)C3=O)N1C[C@@H]1N[C@@H]12 [MITOMYCIN],IC50,[22],500 nM
same,MIC,"[1]; MTCC 2470, 24 h",0.9 µg/mL
same,MIC,"[2]; MTCC 530, 24 h",1.9 µg/mL
same,MBC,[4],1.9 µg/mL
same,IC50,[5],1.1 µM
same,MBC,[6],3.9 µg/mL
same,IC50,[7],300 nM
same,MBC,[8],1.9 µg/mL
same,MIC,"[9]; MTCC 96, 24 h",1.9 µg/mL
same,IC50,[23],500 nM
same,MIC,"[10]; MTCC 2453, 24 h",1.9 µg/mL
same,MBC,[11],3.9 µg/mL
same,IC50,[12],0.9 µM
same,MIC,[13],> 500 µg/mL
same,IC50,[15],1.1 µM
same,MIC,"[16]; MTCC 121, 24 h",0.45 µg/mL
same,MIC,"[17]; MLS16 MTCC 2940, 24 h",1.9 µg/mL
same,IC50,[18],0.9 µM
same,MBC,[19],0.9 µg/mL
same,MIC,"[21]; MTCC 739, 24 h",3.9 µg/mL
CN(Cc1ccc(F)cc1)C(=O)c1ccc(-c2cc(C3=C(N4CC4)C(=O)C=C(N4CC4)C3=O)no2)s1,MIC,"[1]; MTCC 2470, 24 h",31.2 µg/mL
same,MIC,"[2]; MTCC 530, 24 h",> 125 µg/mL
same,IC50,[3],0.5 µM
same,MBC,[4],> 125 µg/mL
same,MBC,[6],> 125 µg/mL
same,MBC,[8],> 125 µg/mL
same,MIC,"[9]; MTCC 96, 24 h",62.5 µg/mL
same,MIC,"[10]; MTCC 2453, 24 h",> 125 µg/mL
same,MBC,[11],> 125 µg/mL
same,MIC,[13],> 125 µg/mL
same,Ratio IC50,[24],30
same,MIC,"[16]; MTCC 121, 24 h",15.6 µg/mL
same,MIC,"[17]; MLS16 MTCC 2940, 24 h",31.2 µg/mL
same,MBC,[19],62.5 µg/mL
same,IC50,[20],15.3 µM
same,MIC,"[21]; MTCC 739, 24 h",> 125 µg/mL
Clc1ccc(COC(Cn2ccnc2)c2ccc(Cl)cc2Cl)c(Cl)c1 (configuration not stated) [MICONAZOLE],MIC,[1],inactive
same,MIC,[2],inactive
same,MFC,[25],15.6 µg/mL
same,MIC,[26],7.8 µg/mL
same,MIC,[27],7.8 µg/mL
same,MFC,[28],15.6 µg/mL
same,MIC,[29],7.8 µg/mL
same,MFC,[30],7.8 µg/mL
same,MFC,[31],15.6 µg/mL
same,MIC,[32],7.8 µg/mL
same,MFC,[33],7.8 µg/mL
same,MIC,[34],7.8 µg/mL
same,MIC,[35],7.8 µg/mL
same,MIC,[36],7.8 µg/mL
same,MIC,[37],7.8 µg/mL
same,MFC,[38],15.6 µg/mL
same,MIC,[9],inactive
same,MFC,[39],7.8 µg/mL
same,MIC,[40],7.8 µg/mL
same,MIC,[10],inactive
same,MIC,[41],7.8 µg/mL
same,MFC,[42],7.8 µg/mL
same,MIC,[13],7.8 µg/mL
same,MFC,[43],15.6 µg/mL
same,MIC,[44],7.8 µg/mL
same,MIC,[16],inactive
same,MFC,[45],7.8 µg/mL
same,MIC,[46],7.8 µg/mL
same,MFC,[47],7.8 µg/mL
same,MFC,[48],15.6 µg/mL
same,MIC,[49],7.8 µg/mL
same,MIC,[17],inactive
same,MFC,[50],7.8 µg/mL
same,MIC,[21],inactive
same,MFC,[51],7.8 µg/mL
